Data as given in patent US20240025883A1, “PYRIMIDIN-2-YL SULFONAMIDE DERIVATIVES” (Hoffmann-La Roche Inc., priority 2021, published 2024).

Legend:
[1] = target: human GPR17 short isoform (Homo sapiens (Human), UniProt Q13304); experiment: GPR17 cAMP assay (hGPR17 cAMP, antagonist mode against EC80 of MDL29,951); format: cell-based; details: CHO-K1 cells stably expressing human GPR17 short isoform; EC80 of agonist MDL29,951; forskolin 15 μM
Method in brief: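 cAMP was read by competitive TR-FRET after a 30 min room-temperature stimulation: antagonists plus EC80 MDL29,951 and 0.5 mM IBMX, followed 5 min later by 15 μM forskolin. Cells were CHO-K1 with stable human GPR17 short isoform in HBSS/HEPES/BSA, pH 7.4; percent activity versus reference antagonist fitted sigmoidally.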

[2] = Microsome clearance assay, human; details: microsomes
Procedure: (§1) Incubations at a test compound of 1 mM in microsomes (0.5 mg/mL) plus cofactor NADPH are performed in 96 well plates at 37° C. on a TECAN (Tecan Group Ltd, Switzerland) automated liquid handling system. The final concentration of the test compound in the incubation is 1 microM. After a 10 minutes preincubation step of the test compound with the microsomes, the enzymatic reaction is started by the addition of cofactors. At 1, 3, 6, 9, 15, 25, 35 and 45 minutes, aliquots of the incubations are removed and quenched with 1:3 (v/v) acetonitrile containing internal standards. Samples are then cooled and centrifuged before analysis of the supernatant by LC-MS/MS.

[3] = Microsome clearance assay, rat; details: microsomes
Procedure: as §1

[4] = Microsome clearance assay, mouse; details: microsomes
Procedure: as §1

[5] = microsomes, 1 µM
Procedure: as §1

[6] = microsomes, 1 µM; remark: listed apart in the source
Procedure: as §1

[7] = microsomes, 1 µM; remark: listed apart in the source
Procedure: as §1

human GPR17 short isoform, sequence (Q13304 29-367): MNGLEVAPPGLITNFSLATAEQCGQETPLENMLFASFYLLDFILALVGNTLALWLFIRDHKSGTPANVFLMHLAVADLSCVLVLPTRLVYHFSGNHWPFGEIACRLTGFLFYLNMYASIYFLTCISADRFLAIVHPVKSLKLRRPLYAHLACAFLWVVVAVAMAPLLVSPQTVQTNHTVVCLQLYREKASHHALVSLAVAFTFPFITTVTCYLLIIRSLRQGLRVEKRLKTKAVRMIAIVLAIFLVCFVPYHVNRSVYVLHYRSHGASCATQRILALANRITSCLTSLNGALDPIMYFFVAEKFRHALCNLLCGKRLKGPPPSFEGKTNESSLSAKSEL

| Compound | IC50 [1] [nM] | microsomal CLint at 1 µM [2] [µL/min/mg] | microsomal CLint at 1 µM [3] [µL/min/mg] | microsomal CLint at 1 µM [4] [µL/min/mg] | Microsomal Clearance human [5] [μL/min/mg protein] | Microsomal Clearance mouse [6] [μL/min/mg protein] | Microsomal Clearance rat [7] [μL/min/mg protein] |
| --- | --- | --- | --- | --- | --- | --- | --- |
| COc1nc(NS(=O)(=O)c2c[nH]c3cc(Cl)ccc23)ncc1Br [Example 22, N-(5-bromo-4-methoxy-pyrimidin-2-yl)-6-chloro-1H-indole-3-sulfonamide] | 515 | 10 | 10 | 10 |  |  |  |
| COc1nc(NS(=O)(=O)c2c[nH]c3cc(Cl)ccc23)ncc1CC(F)F [Example 47, 6-chloro-N-[5-(2,2-difluoroethyl)-4-methoxy-pyrimidin-2-yl]-1H-indole-3-sulfonamide] | 19 | 10 | 110 | 10 |  |  |  |
| COc1nc(NS(=O)(=O)c2c[nH]c3c(F)c(Cl)ccc23)ncc1OCC(F)F [Example 123, 6-chloro-N-[5-(2,2-difluoroethoxy)-4-methoxy-pyrimidin-2-yl]-7-fluoro-1H-indole-3-sulfonamide] | 91 | 10 | 10 | 10 |  |  |  |
| COc1nc(NS(=O)(=O)c2c[nH]c3cc(Cl)ccc23)ncc1CCC#N [Example 179, 6-chloro-N-[5-(2-cyanoethyl)-4-methoxy-pyrimidin-2-yl]-1H-indole-3-sulfonamide] | 31 | 10 | 33 | 10 |  |  |  |
| N-(4-bromo-2-fluoro-5-methoxy-phenyl)-6-chloro-1H-indole-3-sulfonamide [RE-F] |  |  |  |  | 29 | 129 | 166 |
